# Data reported in patent publication US20100197601A1, “USE OF A FIBRINOGEN RECEPTOR ANTAGONIST AND/OR FOLLICULAR GONADOTROPIN RELEASING PEPTIDE AS A THERAPEUTIC AGENT IN THE TREATMENT OF STREPTOCOCCUS PNEUMONIA INFECTION” (priority 2007, published 2010).
# Primed or numbered codes have the meaning given here. Where no end group is shown, it is not given here. [ ]: non-standard residue; d: D form. Pen′ = not defined here
# How the values were obtained:
# [1] = system: HCMV strain AD169; experiment: HCMV plaque formation assay in MRC-5 cells; assay type: cell-based; conditions: for inhibition of HCMV plaque formation as compared to the virus control experiment: 10 micrograms per ml, 7-10 days
# [2] = system: Streptococcus pneumoniae; experiment: Streptococcus pneumoniae assay; assay type: cell-based; conditions: 10 micrograms per ml; 5x10^5 CFU/mL; read visually; combination for instance 0.95 mole peptide 1 and 1.05 mole peptide 2
# [3] = system: murine spleen cells restimulated with Ovalbumin; experiment: Th1/Th2 cytokine profiling assay; assay type: cell-based, Balb/c mice; conditions: 10 micrograms per ml
# [4] = system: Primary Human endothelial cells (HUVEC); experiment: Endothelial cell migration assay; assay type: cell-based; conditions: 10 micrograms per ml, 22 hours, combination peptide 1:peptide 2 1.10 mole:0.90 mole
# [5] = system: HUVEC; experiment: Endothelial tube formation assay; assay type: cell-based, human; conditions: 10 micrograms per ml, 20 hours
# Experimental: The endothelial tube formation assay is based on the ability of endothelial cells to form three-dimensional capillary-like tubular structures when cultured on a gel of basement membrane extract. The endothelial tube formation assay represents a powerful model for studying inhibition and induction of angiogenesis. Pre-labeled HUVEC with Calcein AM were seeded in a 96-well culture plate coated with extracellular metrix (Chemicon international Cat. ECM625) and treated with test peptides—10 micrograms per ml—in full growth medium. Positive control wes vehicle only. The endothelial cells were allowed to form tubes foe 20 hours and were then examined under an inverted fluorescent microscope. Duplicate wells for each treatment were photographed and quantitatively analyzed for an average tubule length using image analysis software ImageProPlus. Raw data were expressed as average tubule lengths in pixels±standard deviation. Statistic p values were computed using the Student's t-test.
# [6] = system: HIV-1IIIB; experiment: HIV-1 antiviral assay in CEM-SS cells
# [7] = system: hepatitis B virus (HBV) ayw strain; experiment: HBV experimental assay system, HepG2-2.2.15; assay type: cell-based; conditions: 10 micrograms per ml, six days, HBV DNA by TaqMan PCR, combination 0.95 mole peptide 1 and 1.05 mole peptide 2
# [8] = combination 0.95 mole peptide 1 and 1.05 mole peptide 2
compound,measurement,setting,value
Thr-Asp-Thr-Ser-His-His-Asp-Gln-Asp-His-Pro-Thr-Phe-Asn-OH (TDTSHHDQDHPTFN-OH) [Peptide 2],inhibition of HCMV plaque formation as compared to the virus control experiment,[1],did not inhibit
same,inhibition of the growth of Streptococcus pneumoniae,[2],100%
same,"production of IFN-y, induced by",[3]; 72 hours,23.4%
same,"production of IL-4, induced by",[3]; 72 hours,29%
same,"production of TNF-alpha, induced by",[3]; 72 hours,34%
same,change of the production of IL-2,[3]; [8],did not significantly change
same,change of the production of IL-5,[3]; [8],did not significantly change
same,inhibition of the migration of human endothelial cells,[4],8%
same,increase of the tube formation of endothelial cells,[5],11%
CC(C)(C)NC(=O)[C@@H]1CN(Cc2cccnc2)CCN1C[C@@H](O)C[C@@H](Cc1ccccc1)C(=O)N[C@H]1c2ccccc2C[C@H]1O [indinavir],antiviral activity of positive control compounds (HIV-1),[6],expected levels of antiviral activity
"Nc1nc(O)c2ncn(COC(CO)CO)c2n1 [Ganciclovir, reference compound]",antiviral activity of positive control compound (HCMV),[1]; positive control,expected levels of antiviral activity
Ac-Pen-Arg-Gly-Asp-Cys-OH (Ac-[Pen′]RGDC-OH; reading uncertain; also: printed as Ac-Pen-Arg-Gly-Asp-Cys-OH) [Peptide 1],inhibition of HBV replication as compared to the virus control infection,[7],no effect
same,inhibition of HCMV plaque formation as compared to the virus control experiment,[1],did not inhibit
same,inhibition of the growth of Streptococcus pneumoniae,[2],100%
same,"production of IL-4, decreased by",[3]; 72 hours,44%
same,"production of IL-5, decreased by",[3]; 72 hours,26.5%
same,"production of TNF-alpha, induced by",[3]; 72 hours,30.0%
same,change of the production of IFN-y,[3]; [8],did not significantly change
same,change of the production of IL-2,[3]; [8],did not significantly change
same,inhibition of the migration of human endothelial cells,[4],4%
same,inhibition of the tube formation of human endothelial cells,[5]; combination peptide 1:peptide 2 1.10 mole:0.90 mole,26%
Cc1cn([C@H]2C[C@H](N=[N+]=[N-])[C@@H](CO)O2)c(=O)[nH]c1=O [AZT],antiviral activity of positive control compounds (HIV-1),[6],expected levels of antiviral activity
